Data taken from ChEMBL document CHEMBL5465560, “Selectivity Literature for EUbOPEN Chemogenomic Library” (2024).
Each block holds one compound with its values, some of them ahead of it.

Key:
[1] = target: T1, Inhibitor of nuclear factor kappa-B kinase subunit beta (Homo sapiens) (UniProt O14920); assay: Selectivity interaction (ActivX KiNativ screen (kinase selectivity in THP-1 cell lysates)) EUB0000639a IKBKB; assay type: subcellular; details: lysate
T1 sequence (whole entry): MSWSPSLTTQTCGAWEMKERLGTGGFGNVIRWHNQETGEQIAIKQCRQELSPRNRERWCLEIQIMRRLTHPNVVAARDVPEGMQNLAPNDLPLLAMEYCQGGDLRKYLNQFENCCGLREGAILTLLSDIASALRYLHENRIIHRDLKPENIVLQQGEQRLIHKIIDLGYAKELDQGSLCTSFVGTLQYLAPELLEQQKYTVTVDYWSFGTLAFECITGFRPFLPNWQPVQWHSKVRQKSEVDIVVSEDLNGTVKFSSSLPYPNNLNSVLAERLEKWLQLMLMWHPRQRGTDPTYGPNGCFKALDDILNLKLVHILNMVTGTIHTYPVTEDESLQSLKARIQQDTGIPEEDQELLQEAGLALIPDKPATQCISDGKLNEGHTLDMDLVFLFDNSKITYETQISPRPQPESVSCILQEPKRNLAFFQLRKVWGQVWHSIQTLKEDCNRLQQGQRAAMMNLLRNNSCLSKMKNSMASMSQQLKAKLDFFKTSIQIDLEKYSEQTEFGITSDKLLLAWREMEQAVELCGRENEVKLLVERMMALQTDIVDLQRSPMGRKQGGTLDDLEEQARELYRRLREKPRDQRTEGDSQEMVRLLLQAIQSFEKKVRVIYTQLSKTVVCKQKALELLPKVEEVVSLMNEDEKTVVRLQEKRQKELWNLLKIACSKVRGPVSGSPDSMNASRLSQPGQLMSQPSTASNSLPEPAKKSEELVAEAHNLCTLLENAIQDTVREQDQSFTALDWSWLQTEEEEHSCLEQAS

[2] = target: Phosphatidylinositol 4,5-bisphosphate 3-kinase catalytic subunit alpha isoform (Homo sapiens) (UniProt P42336); assay: (§1) Selectivity interaction (KinomeScan (DiscoverX)) EUB0001079a PIK3CA; details: at 1 µM
[3] = test system: Phosphatidylinositol 4,5-bisphosphate 3-kinase catalytic subunit alpha isoform (Homo sapiens), P42336 [I800L]; assay: as §1; details: at 1 µM
[4] = test system: Phosphatidylinositol 4,5-bisphosphate 3-kinase catalytic subunit alpha isoform (Homo sapiens), P42336 [H1047L]; assay: as §1; details: at 1 µM
[5] = target: T2, cAMP-dependent protein kinase catalytic subunit PRKX (Homo sapiens) (UniProt P51817); assay: Selectivity interaction (KinomeScan (DiscoverX)) EUB0000045b PRKX
T2 sequence (whole entry): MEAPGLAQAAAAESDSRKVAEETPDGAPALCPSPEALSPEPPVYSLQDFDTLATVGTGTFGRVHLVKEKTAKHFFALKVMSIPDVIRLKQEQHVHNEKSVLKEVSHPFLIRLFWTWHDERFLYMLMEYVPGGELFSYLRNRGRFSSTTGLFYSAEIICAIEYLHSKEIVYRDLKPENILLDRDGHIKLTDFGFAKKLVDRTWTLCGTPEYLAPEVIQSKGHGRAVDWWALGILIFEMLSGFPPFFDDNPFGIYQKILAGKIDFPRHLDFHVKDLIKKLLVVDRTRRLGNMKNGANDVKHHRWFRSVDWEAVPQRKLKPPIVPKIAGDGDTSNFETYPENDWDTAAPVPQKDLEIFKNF

[6] = target: T3, Cyclin-dependent kinase 11A (Homo sapiens) (UniProt Q9UQ88); assay: Selectivity interaction (KinomeScan (DiscoverX)) EUB0000618a CDK11A; details: at 10 µM
T3 sequence (whole entry): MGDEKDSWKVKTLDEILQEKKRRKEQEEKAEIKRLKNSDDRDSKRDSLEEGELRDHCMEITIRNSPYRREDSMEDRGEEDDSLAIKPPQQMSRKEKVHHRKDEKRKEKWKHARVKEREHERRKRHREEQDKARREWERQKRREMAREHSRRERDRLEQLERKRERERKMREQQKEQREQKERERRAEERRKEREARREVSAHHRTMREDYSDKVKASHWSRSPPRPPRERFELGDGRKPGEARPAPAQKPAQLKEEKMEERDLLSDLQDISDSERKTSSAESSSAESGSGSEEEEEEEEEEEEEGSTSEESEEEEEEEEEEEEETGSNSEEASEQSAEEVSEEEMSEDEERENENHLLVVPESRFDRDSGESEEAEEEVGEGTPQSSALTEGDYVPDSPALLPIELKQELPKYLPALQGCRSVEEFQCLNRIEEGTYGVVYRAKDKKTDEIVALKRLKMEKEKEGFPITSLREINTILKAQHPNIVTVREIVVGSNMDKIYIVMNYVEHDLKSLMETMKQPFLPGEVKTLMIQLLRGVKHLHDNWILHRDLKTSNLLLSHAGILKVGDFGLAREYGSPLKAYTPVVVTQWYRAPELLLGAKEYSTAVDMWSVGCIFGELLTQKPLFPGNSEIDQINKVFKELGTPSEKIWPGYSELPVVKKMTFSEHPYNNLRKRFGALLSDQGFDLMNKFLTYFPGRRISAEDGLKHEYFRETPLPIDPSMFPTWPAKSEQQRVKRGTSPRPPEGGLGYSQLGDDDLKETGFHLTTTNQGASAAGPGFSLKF

[7] = test system: Tyrosine-protein kinase ABL1 (Homo sapiens), P00519 [T315I]; assay: Selectivity interaction (KinomeScan (DiscoverX)) EUB0000666a ABL1; details: at 10 µM
[8] = target: T4, Myotonin-protein kinase (Homo sapiens) (UniProt Q09013); assay: Selectivity interaction (KinomeScan (DiscoverX)) EUB0000666a DMPK; details: at 10 µM
T4 sequence (whole entry): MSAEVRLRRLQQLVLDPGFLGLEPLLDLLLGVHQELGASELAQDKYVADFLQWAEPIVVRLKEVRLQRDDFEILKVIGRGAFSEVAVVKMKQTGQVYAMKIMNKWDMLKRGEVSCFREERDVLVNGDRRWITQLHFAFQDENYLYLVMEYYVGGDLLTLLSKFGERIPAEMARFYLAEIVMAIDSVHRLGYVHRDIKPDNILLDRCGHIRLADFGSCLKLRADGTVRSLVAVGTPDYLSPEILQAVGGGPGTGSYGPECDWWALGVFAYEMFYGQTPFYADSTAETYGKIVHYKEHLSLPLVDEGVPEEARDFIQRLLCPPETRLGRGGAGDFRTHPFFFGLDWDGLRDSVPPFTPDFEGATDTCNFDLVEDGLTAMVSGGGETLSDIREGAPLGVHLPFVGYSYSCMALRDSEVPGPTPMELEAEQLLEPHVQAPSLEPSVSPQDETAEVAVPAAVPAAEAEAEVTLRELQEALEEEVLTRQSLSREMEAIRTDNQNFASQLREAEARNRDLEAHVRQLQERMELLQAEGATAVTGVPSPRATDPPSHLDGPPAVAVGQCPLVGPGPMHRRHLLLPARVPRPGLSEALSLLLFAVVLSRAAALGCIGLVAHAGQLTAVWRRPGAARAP

Sequence of Phosphatidylinositol 4,5-bisphosphate 3-kinase catalytic subunit alpha isoform (Homo sapiens), P42336 [I800L] (P42336 whole entry I800L, canonical isoform): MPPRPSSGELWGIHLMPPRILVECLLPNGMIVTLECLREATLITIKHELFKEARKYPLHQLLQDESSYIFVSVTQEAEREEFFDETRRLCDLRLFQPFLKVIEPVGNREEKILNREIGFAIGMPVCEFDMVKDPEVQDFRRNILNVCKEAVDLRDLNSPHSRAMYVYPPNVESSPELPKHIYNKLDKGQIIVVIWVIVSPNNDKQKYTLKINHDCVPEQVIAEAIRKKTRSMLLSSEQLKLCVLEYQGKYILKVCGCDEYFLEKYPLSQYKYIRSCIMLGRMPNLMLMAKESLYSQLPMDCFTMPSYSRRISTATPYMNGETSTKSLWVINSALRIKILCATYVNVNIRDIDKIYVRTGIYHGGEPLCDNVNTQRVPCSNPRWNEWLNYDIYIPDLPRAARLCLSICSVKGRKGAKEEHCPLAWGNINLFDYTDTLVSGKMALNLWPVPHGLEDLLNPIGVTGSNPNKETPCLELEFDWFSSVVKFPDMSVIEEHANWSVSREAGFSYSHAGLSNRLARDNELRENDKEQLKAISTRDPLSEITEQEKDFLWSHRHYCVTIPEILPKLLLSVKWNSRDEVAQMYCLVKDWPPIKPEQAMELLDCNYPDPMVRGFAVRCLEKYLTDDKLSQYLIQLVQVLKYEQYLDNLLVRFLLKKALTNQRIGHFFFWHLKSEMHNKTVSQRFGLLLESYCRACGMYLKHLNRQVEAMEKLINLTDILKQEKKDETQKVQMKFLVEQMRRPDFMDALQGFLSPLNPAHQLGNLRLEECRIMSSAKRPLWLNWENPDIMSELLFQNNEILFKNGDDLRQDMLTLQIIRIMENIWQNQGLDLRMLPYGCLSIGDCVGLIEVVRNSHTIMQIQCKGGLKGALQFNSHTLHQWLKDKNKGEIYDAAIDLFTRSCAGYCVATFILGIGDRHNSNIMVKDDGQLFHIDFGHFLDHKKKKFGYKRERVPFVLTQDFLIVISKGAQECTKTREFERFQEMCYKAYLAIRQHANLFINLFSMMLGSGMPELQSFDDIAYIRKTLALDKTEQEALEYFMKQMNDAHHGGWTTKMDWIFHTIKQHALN
Sequence of Phosphatidylinositol 4,5-bisphosphate 3-kinase catalytic subunit alpha isoform (Homo sapiens) (P42336 whole entry, canonical isoform): as the sequence (P42336 whole entry I800L, canonical isoform) above, with L800I counted along it
Sequence of Phosphatidylinositol 4,5-bisphosphate 3-kinase catalytic subunit alpha isoform (Homo sapiens), P42336 [H1047L] (P42336 whole entry H1047L, canonical isoform): as the sequence (P42336 whole entry I800L, canonical isoform) above, with L800I, H1047L counted along it

% of inhibition ([1]; at 0.01 µM): -9.1%
% of inhibition ([1]; at 0.04 µM): 4.5%
% of inhibition ([1]; at 0.2 µM): -13.8%
% of inhibition ([1]; at 1 µM): 4.1%
% of inhibition ([1]; at 5 µM): -6.8%
SMILES: CC[C@@H]1[C@H](F)C(=O)N[C@@H]1COc1nccc2cc(C(N)=O)c(OC)cc12 [ZIMLOVISERTIB]

SMILES: Nc1cnc(N2CCc3cc(S(=O)(=O)Nc4c(F)cc(Cl)cc4F)cc(N4CCCC4=O)c32)nc1 [TP-020n]
% of control [2]: 76%
% of control [3]: 80%
% of control [4]: 60%

SMILES: C=CC(=O)Nc1cc(-n2c(=O)ccc3cnc4ccc(-c5ccc(NS(C)(=O)=O)cc5)cc4c32)ccc1C
% of control ([5]; at 1 µM): 77%
% of control ([5]; at 10 µM): 74%

SMILES: O[C@H]1CC[C@H](Nc2ncc3nc(Nc4c(F)cc(F)cc4F)n([C@H]4CCOC4)c3n2)CC1
% of control [6]: 98%

SMILES: O=C(NOC[C@H](O)CO)c1ccc(F)c(F)c1Nc1ccc(I)cc1F
% of control [7]: 86%
% of control [8]: 90%
